The values below come from PMC6753226, “Highly Efficient Preparation of Cyclic Dinucleotides via Engineering of Dinucleotide Cyclases in Escherichia coli” (Frontiers in Microbiology, 2019).

The target in this experiment is T1, STING (Homo sapiens, UniProt Q86WV6, H232R).
T1 construct: gene STING1; carboxy-terminal domain (STING^R232/CTD; CTD printed as residues 149–379)
The experiment is described as follows: isothermal titration calorimetry (ITC). It counts as binding. For orientation: ITC needs no label: the signal is the heat of the interaction.

T1 sequence (Q86WV6 149-379 H232R): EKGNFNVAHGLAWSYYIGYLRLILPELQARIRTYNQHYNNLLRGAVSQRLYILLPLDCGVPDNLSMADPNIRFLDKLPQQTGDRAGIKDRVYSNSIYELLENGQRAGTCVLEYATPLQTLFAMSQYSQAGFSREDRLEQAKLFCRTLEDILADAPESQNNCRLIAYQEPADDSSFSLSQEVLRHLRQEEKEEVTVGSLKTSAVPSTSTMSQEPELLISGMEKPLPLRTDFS

With `Nc1nc2c(ncn2[C@@H]2O[C@@H]3CO[P@](=O)(O)O[C@H]4[C@@H](O)[C@H](n5cnc6c(=O)[nH]c(N)nc65)O[C@@H]4CO[P@](=O)(O)O[C@H]3[C@H]2O)c(=O)[nH]1` [c-di-GMP], binding was put at a Kd of 4.09 µM.
